Consider 3 compounds from patent US9872868B2, “Mitochondrially-targeted electrophilic compounds and methods of use for the treatment of cancer” (UAB Research Foundation, priority 2013, dated 2018).

Data set [1] has as its system HIF-1α. Briefly: HIF-1α stabilization by western blotting. Format: cell-based, human. On the procedure: FIG. 5. Effects of an MTE on HIF-1α. MDA-MB-231 cells were incubated for 8 h under normoxia or hypoxia and were treated with either 10 μM IBTP or bTPP for 4 h. The lysates were collected and analyzed for HIF-1α stabilization by western blotting.
However, the mechanism for this decrease in HIF-1α protein is not clear. One possibility is that IBTP inhibits the enzyme within the Krebs cycle, KGDH, that is responsible for converting α-ketoglutarate to succinyl-CoA. Inhibition of this enzyme would cause an increase in α-ketoglutarate, which is a cofactor for the prolyl hydroxylase involved in HIF-1α degradation. We propose that MTEs affect HIF-1α stabilization at least in part, by modulating the activity of KGDH and increasing intracellular levels of α-ketoglutarate. KGDH was previously shown to be among the proteins which form covalent adducts with IBTP (13). Importantly, decreased stabilization of HIF-1α prevents the bioenergetic adaptation to hypoxia in breast cancer cells, as we have recently shown (11)(in press, see Appendix 1).

Data set [2] deals with cancer or noncancer cells. In words: Cytotoxicity of the MTE alone. Format: cell-based. Particulars: data not shown.
For data set [3], the system named is MDA-MB 231 breast cancer cells. In words: Cell adhesion (reattachment after scraping), viable non-adherent cells counted with trypan blue. Format: cell-based, human. On the procedure: FIG. 7. Two ×10^5 cells/plate were plated on a 6-well plate, 24 hrs after plating cells were starved in 0.5% FCS containing media for another 24 hrs. Cells were then treated for another 24 hrs with increasing doses of IBTP or the non-reactive analog butyl-triphenylphosphonium (BTPP) as a control. Cells were scraped and made into single cell suspension. Cells were counted and plated in 100-mm tissue culture plate. After 24 hrs the media is collected, centrifuged and the viable cells were counted using trypan blue.
FIG. 2. Two×10^5 cells/plate were plated on a 6-well plate, 24 hrs after plating cells were starved in 0.5% FCS containing media for another 24 hrs.
Cells were then treated for another 24 hrs with increasing doses of IBTP or the non-reactive analog butyl-triphenylphosphonium (BTPP) as a control. Cells were scraped and made into single cell suspension. Cells were counted and plated in 100-mm tissue culture plate. After 24 hrs the media is collected, centrifuged and the viable cells were counted using trypan blue.

Data set [4] has as its system aconitase (ACO), isocitrate dehydrogenase (IDH), and α-ketoglutarate dehydrogenase (KGDH). Particulars: cited from earlier work.
Data set [5] deals with MDA-MB 231 cells. In words: Mitochondrial bioenergetic assay, Extracellular Flux Analyzer XF-24 (OCR). Format: cell-based, human. The conditions noted are these: 5 μM, 4 h, 0.5% serum containing medium, vs EtOH vehicle. On the procedure:
FIG. 3. Bioenergetic response of breast cancer cells to MTE. Panel A. A schematic representation of the mitochondrial bioenergetic assay in an Extracellular Flux Analyzer XF-24 (Seahorse Biosciences). Panel A: Sequential injections of oligomycin, FCCP, and Antimycin A allow determination of the component mitochondrial bioenergetic parameters. Panel B. MDA-MB 231 cells were treated for 4 h in 0.5% serum containing medium with EtOH vehicle, IBTP (5 μM), or BTPP (5 μM) and the OCR measured over time. Panel C. Comparison of basal OCR, ATP-dependent OCR, and reserve capacity (RC) with veh and IBTP treatments. Each point is the mean of a minimum of 3 determinations±SEM, from at least 2 independent experiments. Asterisks represent p<0.05. Recent work has shown that MTEs can modulate cell signaling, and depending upon the specific MTE, may do so without causing overt cellular toxicity to cancer cells or normal cells (12). MTEs are small molecules which consist of a triphenylphosphonium lipophilic cationic moiety and a leaving group such as iodide, which renders the adjacent carbon electrophilic. […] We have previously shown reserve capacity is indicative of the cells' ability to withstand a “second hit” of oxidative stress (7).

Data set [6] concerns MCF10A nontumorigenic cells. Briefly: Sensitization to doxorubicin in nontumorigenic cells. The conditions noted are these: data not shown. Format: cell-based.
Data set [7] has as its system MDA-MB 231 breast cancer cells. In words: Cell death and clonogenic survival. The class given is cell-based.
The test system of data set [8] is breast cancer cells. The conditions noted are these: by altering p38 and ERK signaling; cited from earlier work.
For data set [9] the following is noted: i.p. injection; cited from earlier work.
For data set [10] the following is noted: cited from earlier work.

Consider `ICCCC[P+](c1ccccc1)(c1ccccc1)c1ccccc1` [IBTP, iodobutyl triphenylphosphonium iodide], for which, in [1] (MDA-MB-231, 10 μM, 4 h, normoxia or hypoxia 8 h), the “constitutive and hypoxia-inducible expression of HIF-1α protein” value is “inhibits both constitutive and hypoxia-inducible expression of HIF-1α protein”. The “basal HIF-1α stabilization” value in data set [1] (MDA-MB-231, data not shown) is “inhibited basal HIF-1α stabilization both time and dose-dependently”. The cytotoxicity result in [2] is “not cytotoxic”. Further, the “reattachment to tissue culture plates after scraping” value in data set [3] (10 μM, 24 h) was “failed to reattach”. Further, the inhibition at 10 µM in data set [3] (Homo sapiens, MDA-MB-231, read-out: cells whose adhesion is inhibited after detachment) is around 15%. In addition, the “covalent adducts with Krebs cycle proteins” value in [4] is listed as “forms covalent adducts”. Further, in [5], the “basal OCR” value is recorded as “decrease basal OCR” and the “reserve capacity (RC)” value was “completely abrogates the reserve capacity”. The sensitization to doxorubicin entry in [6] is listed as “did not sensitize”. In addition, the overt cell death entry in data set [7] (10 μM, 24 h) is listed as “no evidence of overt cell death”. Further, the clonogenic survival result in [7] (10 μM, data not shown) was “significantly decreased clonogenic survival”. The “cytotoxicity at higher concentrations” value in data set [7] (concentrations higher than 10 μM, MDA-MB 231 and other cell types) is “can be cytotoxic”.

Take `CCCCC/C=C/C=C1/C(=O)C=C[C@@H]1C/C=C\CCCC(=O)O` [15d-PGJ2, 15 deoxy-prostaglandin J2]: the “migration of breast cancer cells” value in [8] is recorded as “inhibits migration”.

Regarding `COC1=C(OC)C(=O)C(CCCCCCCCCC[P+](c2ccccc2)(c2ccccc2)c2ccccc2)=C(C)C1=O` [mitoQ], in [9], the “dose up to which no toxicity was observed” value is “up to 750 nmol mitoQ/mouse”. Moreover, in data set [10] (clinical trials), the oral bioavailability result is reported as “orally bioavailable” and the tolerability entry was “well tolerated”. In addition, in [10] (phase I clinical trials), the “efficacy in Parkinson's Disease” value is “not found to be effective”.
